Results reported in PubChem BioAssay AID328 (DTP/NCI, 2004).
“And” between values parts separate entries of the source, which are not always exact repeats. Equal values may be shown once. Inconclusive results and toxic doses are left out.

System: BDF1 mice, P388 leukemia ip, median survival T/C
Assay: NCI In Vivo Anticancer Drug Screen. Data for tumor model P388 Leukemia (intraperitoneal) in B6D2F1 (BDF1) mice
Details: endpoint: median survival time, higher = longer survival
Method in brief: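 Antitumour effect was judged in vivo: survival in drug-treated mice, normalised to that of vehicle-dosed controls, gives the reported T/C.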

[1] = dose: 100.0 mg/kg/injection, schedule: Q01DX001 (ip), vehicle: saline with Tween-80
[2] = dose: 200.0 mg/kg/injection, schedule: Q01DX001 (ip), vehicle: saline with Tween-80
[3] = dose: 50.0 mg/kg/injection, schedule: Q01DX009 (ip), vehicle: saline with Tween-80
[4] = dose: 100.0 mg/kg/injection, schedule: Q01DX009 (ip), vehicle: saline with Tween-80
[5] = dose: 200.0 mg/kg/injection, schedule: Q01DX009 (ip), vehicle: saline with Tween-80
[6] = dose: 200.0 mg/kg/injection, schedule: Q04DX003 (ip), vehicle: saline with Tween-80
[7] = dose: 100.0 mg/kg/injection, schedule: Q01DX009 (ip), vehicle: saline
[8] = dose: 1.5 mg/kg/injection, schedule: Q01DX009 (ip), vehicle: saline with Tween-80

C1CCC2C[N-]CCC2C1.C1CCC2C[N-]CCC2C1.C1CCC2C[N-]CCC2C1.C1CCC2C[N-]CCC2C1.[Cl][Rh][Cl] (centres undefined)
T/C (dose: 0.13 mg/kg/injection, schedule: Q01DX009 (ip), vehicle: saline): 95 % of control
T/C (dose: 0.25 mg/kg/injection, schedule: Q01DX009 (ip), vehicle: saline): 104 % of control
T/C (dose: 0.39 mg/kg/injection, schedule: Q01DX009 (ip), vehicle: saline with Tween-80): 115 % of control
T/C (dose: 0.5 mg/kg/injection, schedule: Q01DX009 (ip), vehicle: saline): 119 % of control
T/C (dose: 0.78 mg/kg/injection, schedule: Q01DX009 (ip), vehicle: saline with Tween-80): 115 % of control
T/C (dose: 0.88 mg/kg/injection, schedule: Q01DX009 (ip), vehicle: saline): 153 % of control
T/C (dose: 1.33 mg/kg/injection, schedule: Q01DX009 (ip), vehicle: saline): 174 % of control
T/C (dose: 1.56 mg/kg/injection, schedule: Q01DX009 (ip), vehicle: saline with Tween-80): 150 % of control
T/C (dose: 2.0 mg/kg/injection, schedule: Q01DX009 (ip), vehicle: saline): 153 % of control
T/C (dose: 2.66 mg/kg/injection, schedule: Q01DX009 (ip), vehicle: saline): 159 % of control
T/C (dose: 3.12 mg/kg/injection, schedule: Q01DX009 (ip), vehicle: saline with Tween-80): 185 % of control
T/C (dose: 4.0 mg/kg/injection, schedule: Q01DX009 (ip), vehicle: saline): 168 % of control and 170 % of control
T/C (dose: 6.0 mg/kg/injection, schedule: Q01DX009 (ip), vehicle: saline): 100 % of control

CC1(C)OCC(/C=C/C=N/Nc2ccc([N+](=O)[O-])cc2)O1 (centres undefined)
T/C [1]: 105 % of control
T/C [2]: 110 % of control

COC(=O)C(CC(O)c1ccccc1)N1CCOCC1 (centres undefined)
T/C [1]: 100 % of control
T/C [2]: 100 % of control
T/C (dose: 400.0 mg/kg/injection, schedule: Q01DX001 (ip), vehicle: saline with Tween-80): 100 % of control

CCCCC(C)(O)CC (centres undefined)
T/C [3]: 109 % of control
T/C [4]: 118 % of control
T/C (dose: 100.0 mg/kg/injection, schedule: Q04DX003 (ip), vehicle: saline with Tween-80): 104 % of control
T/C [5]: 100 % of control
T/C [6]: 104 % of control

CCCC/C=C/CO
T/C [3]: 108 % of control
T/C [4]: 103 % of control

COC(OC)c1[nH]c(=S)[nH]c(=O)c1C
T/C (dose: 100.0 mg/kg/injection, schedule: Q04DX003 (sc), vehicle: olive oil, sesame oil, peanut oil): 90 % of control
T/C (dose: 200.0 mg/kg/injection, schedule: Q04DX003 (sc), vehicle: olive oil, sesame oil, peanut oil): 95 % of control
T/C (dose: 400.0 mg/kg/injection, schedule: Q04DX003 (sc), vehicle: olive oil, sesame oil, peanut oil): 90 % of control

CC(=O)OC/C=C(C)/C=C/C=C(C)/C=C/C1=C(C)CCCC1(C)C
T/C (dose: 100.0 mg/kg/injection, schedule: Q01DX010 (ip), vehicle: acetone): 107 % of control
T/C (dose: 200.0 mg/kg/injection, schedule: Q01DX010 (ip), vehicle: acetone): 89 % of control
T/C (dose: 800.0 mg/kg/injection, schedule: Q01DX010 (ip), vehicle: acetone): 121 % of control

CN(C)C(=S)S
T/C (dose: 50.0 mg/kg/injection, schedule: Q04DX003 (ip), vehicle: saline): 103 % of control
T/C (dose: 100.0 mg/kg/injection, schedule: Q04DX003 (ip), vehicle: saline): 103 % of control
T/C (dose: 200.0 mg/kg/injection, schedule: Q04DX003 (ip), vehicle: saline): 105 % of control
T/C (dose: 400.0 mg/kg/injection, schedule: Q04DX003 (ip), vehicle: saline): 117 % of control

CC1(C)CC(=O)C=C(NCc2ccccc2)C1
T/C (dose: 37.5 mg/kg/injection, schedule: Q01DX009 (ip), vehicle: Klucel (hydroxypropylcellulose) (HPC)): 100 % of control
T/C (dose: 75.0 mg/kg/injection, schedule: Q01DX009 (ip), vehicle: Klucel (hydroxypropylcellulose) (HPC)): 100 % of control
T/C (dose: 150.0 mg/kg/injection, schedule: Q01DX009 (ip), vehicle: Klucel (hydroxypropylcellulose) (HPC)): 100 % of control

CCOC(=O)C(=CC(CC)(C(=O)OCC)C(=O)OCC)C(=O)OCC
T/C [7]: 95 % of control
T/C (dose: 200.0 mg/kg/injection, schedule: Q01DX009 (ip), vehicle: saline): 104 % of control
T/C (dose: 400.0 mg/kg/injection, schedule: Q01DX009 (ip), vehicle: saline): 104 % of control

COC(=O)NC1C(C)C=CC(C)C1I (centres undefined)
T/C [4]: 95 % of control
T/C [5]: 113 % of control
T/C [6]: 105 % of control
T/C (dose: 400.0 mg/kg/injection, schedule: Q01DX009 (ip), vehicle: saline with Tween-80): 100 % of control
T/C (dose: 400.0 mg/kg/injection, schedule: Q04DX003 (ip), vehicle: saline with Tween-80): 110 % of control

O=C(O)C1C(C(=O)O)C2(Cl)C(Cl)=C(Cl)C1(Cl)C2(Cl)Cl.[Cu+2] (centres undefined)
T/C (dose: 12.5 mg/kg/injection, schedule: Q01DX009 (ip), vehicle: saline sonified): 100 % of control
T/C (dose: 25.0 mg/kg/injection, schedule: Q01DX009 (ip), vehicle: saline sonified): 110 % of control

CCC[CH2][Sn]1([CH2]CCC)[O]OC(c2ccc(C)cc2)[O]1 (centres undefined)
T/C (dose: 0.38 mg/kg/injection, schedule: Q01DX009 (ip), vehicle: saline with Tween-80): 114 % of control
T/C [8]: 117 % of control
T/C (dose: 3.13 mg/kg/injection, schedule: Q01DX009 (ip), vehicle: saline with Tween-80): 123 % of control
T/C (dose: 5.3 mg/kg/injection, schedule: Q01DX009 (ip), vehicle: saline with Tween-80): 86 % of control

NC(=O)C(Br)CBr (centres undefined)
T/C [8]: 103 % of control
T/C (dose: 3.0 mg/kg/injection, schedule: Q01DX009 (ip), vehicle: saline with Tween-80): 98 % of control
T/C (dose: 12.0 mg/kg/injection, schedule: Q01DX009 (ip), vehicle: saline with Tween-80): 107 % of control and 115 % of control
T/C (dose: 25.0 mg/kg/injection, schedule: Q01DX009 (ip), vehicle: Klucel (hydroxypropylcellulose) (HPC)): 114 % of control
T/C (dose: 25.0 mg/kg/injection, schedule: Q01DX009 (ip), vehicle: saline with Tween-80): 105 % of control
T/C (dose: 25.0 mg/kg/injection, schedule: Q01DX009 (ip), vehicle: saline): 99 % of control
T/C (dose: 50.0 mg/kg/injection, schedule: Q01DX009 (ip), vehicle: Klucel (hydroxypropylcellulose) (HPC)): 94 % of control
T/C (dose: 50.0 mg/kg/injection, schedule: Q01DX009 (ip), vehicle: saline): 99 % of control
T/C (dose: 100.0 mg/kg/injection, schedule: Q01DX009 (ip), vehicle: Klucel (hydroxypropylcellulose) (HPC)): 114 % of control
T/C [7]: 92 % of control

CCC(CCC(C)C1CCC2C3CC=C4CC(OC5OC(CO)C(O)C(O)C5O)CCC4(C)C3CCC12C)C(C)C (centres undefined)
T/C (dose: 100.0 mg/kg/injection, schedule: Q04DX003 (ip), vehicle: Klucel (hydroxypropylcellulose) (HPC)): 95 % of control
T/C (dose: 200.0 mg/kg/injection, schedule: Q04DX003 (ip), vehicle: Klucel (hydroxypropylcellulose) (HPC)): 95 % of control

COC12CC3(C)C(C4=CC(=O)OC4)CCC3(O)C3CCC4=CC(=O)CCC4(CO1)C32 (centres undefined)
T/C (dose: 56.0 mg/kg/injection, schedule: Q01DX010 (ip), vehicle: carboxymethylcellulose (CMC)): 95 % of control
T/C (dose: 112.5 mg/kg/injection, schedule: Q01DX010 (ip), vehicle: carboxymethylcellulose (CMC)): 100 % of control
T/C (dose: 225.0 mg/kg/injection, schedule: Q01DX010 (ip), vehicle: carboxymethylcellulose (CMC)): 90 % of control

CO[C@H](C)[C@](O)(C(=O)OCC1=CCN2CC[C@@H](O)[C@H]12)C(C)C
T/C (dose: 25.0 mg/kg/injection, schedule: Q01DX010 (ip), vehicle: carboxymethylcellulose (CMC)): 111 % of control
T/C (dose: 50.0 mg/kg/injection, schedule: Q01DX010 (ip), vehicle: carboxymethylcellulose (CMC)): 111 % of control
T/C (dose: 100.0 mg/kg/injection, schedule: Q01DX010 (ip), vehicle: carboxymethylcellulose (CMC)): 111 % of control

CCOc1nc(SCC)ncc1C
T/C (dose: 50.0 mg/kg/injection, schedule: Q01DX009 (ip), vehicle: water): 109 % of control
T/C (dose: 100.0 mg/kg/injection, schedule: Q01DX009 (ip), vehicle: water): 101 % of control
T/C (dose: 100.0 mg/kg/injection, schedule: Q04DX003 (ip), vehicle: water): 99 % of control
T/C (dose: 200.0 mg/kg/injection, schedule: Q01DX009 (ip), vehicle: water): 108 % of control
T/C (dose: 200.0 mg/kg/injection, schedule: Q04DX003 (ip), vehicle: water): 103 % of control
T/C (dose: 400.0 mg/kg/injection, schedule: Q04DX003 (ip), vehicle: water): 107 % of control

COC(=O)C1=C(C)NC(C)=C(C(=O)OC)C1C(C)SC#N (centres undefined)
T/C [3]: 107 % of control
T/C [4]: 109 % of control
T/C [5]: 97 % of control
